The record followed here is patent US20090042946A1, “METHOD AND KIT FOR C[…]” (priority 2003, published 2009).

The test system of the assay is severed left femoral artery. The assay is described as follows: Severed femoral artery bleeding model in anesthetized mice, topical VRA by cotton-tipped applicator. The assay is classed as in vivo. The protocol:
Approximately 4 to 6 week old white mice weighing about 20 grams were anesthetized using 50 microliters of anesthetic (ketamine+xylazine) intraperitoneally. The area near the inguinal region (1.75 cm proximal to the ankle) was shaved and a 0.5 to 1 cm incision was made such that the left femoral artery was severed. The incision was washed with normal saline. Control animals were treated with saline while test animals were treated with a VRA (alvinil) (approx. 500 microliters of a 0.8 mmol solution) administered topically with a cotton-tipped applicator soaked with the VRA solution over the wound. The applicator was then removed after 5 seconds and the wound was evaluated for signs of hemorrhage.
In the control mice, the wound was continuously flushed with saline.
In the treatment group of animals, the wound was treated with arvinil by swab application, then flushed once with saline. […] After 10 minutes, a second incision was made in the femoral artery above the previous cut resulting in severe hemorrhage.

With `CCCCC/C=C\C/C=C\C/C=C\C/C=C\CCCC(=O)NCc1ccc(O)c(OC)c1` [arvinil], under “during the course of the experiment after topical treatment of the severed femoral artery”, the signs of shock entry is “No signs of shock”. In addition, the “heart perfusion at euthanasia (KCl heart puncture)” value (end of experiment after topical treatment of both cuts) was “fully perfused”. For the same compound, the “bleeding from second incision in femoral artery after application” value (second incision above the previous cut after 10 minutes caused severe hemorrhage, topical application to the second cut) is listed as “cessation of bleeding”. For the same compound, the “bleeding from severed femoral artery after treatment” value (swab application, approx. 500 microliters of 0.8 mmol solution, applicator removed after 5 seconds, observed following one saline flush) is listed as “No bleeding was observed”.
